Measurements from patent publication US8153687B2, “Gallium complexes with polyalcohols and methods of use” (priority 2009, dated 2012).

Test system: Pseudomonas aeruginosa
Experiment: Topical treatment of a recalcitrant Pseudomonas aeruginosa infected diabetic foot ulcer (case)
Type: in vivo
Conditions: severe diabetic foot ulcer with biofilm formation

Row | Molecule | response of the infection to treatment (oral treatment) | response of the infection to treatment (topical treatment)
1 | O=C(O)c1cn(C2CC2)c2cc(N3CCNCC3)c(F)cc2c1=O [ciprofloxacin] | does not respond | does not respond
2 | Oc1cc(Cl)ccc1Oc1ccc(Cl)cc1Cl [triclosan] | – | does not respond
3 | gentamicin | – | does not respond
